Columns and labels:
[1] = test system: rat brain receptor (opiate); test: Rat brain binding assay with tritiated βh-EP as primary ligand (Example 4); conditions: for IC50: 50% inhibiting concentration; for Relative Potency: receptor binding, βh-Endorphin = 100
Procedure: Opiate activity was measured in the rat brain binding assay in which tritiated βh -EP is used as primary ligand (Ferrara et al., Biochem. Biophys. Res. Comm. 89, 786 [1979]).

[2] = biological target: opiate receptor; test: Opiate receptor binding assay, rat brain membrane fraction (Example 2); conditions: for IC50: 50% inhibiting concentration, [3H-Tyr27]-βh-EP as primary ligand; for Relative Potency: receptor binding, βh-Endorphin = 100
Procedure: The opiate receptor binding assay was performed by the method of Pasternak et al., Mol. Pharmacol. 11, 340 (1975) with modifications using a membrane fraction from rat brain homogenate. [^3 H-Tyr^27 ]-βh -EP was used as primary ligand and synthetic βh -EP as standard competing ligand.

[3] = test system: guinea pig ileum preparations; test: Opiate activity: depression of electrically-stimulated contractions of guinea pig ileum preparations; assay type: cell-based; conditions: for IC50: guinea pig ileum assay; for Relative Potency: guinea pig ileum, βh-Endorphin = 100
Procedure: (§1) Opiate activity was measured from the depression of electrically-stimulatedcontractions of guinea pig ileum preparations, see Kosterlitz et al., J. Pharmacol. 39, 398 (1970) and Doneen et al., Biochem. Biophys. Res. Commun. 74, 656 (1977). For analgesic assay, male ICR mice weighing 25-30 g (Simonsen Laboratories, Gilroy, CA) were used. Analgesic activity was assessed by the tail-flick method of D'Amour and Smith as described by Li et al., Biochem. Biophys. Res. Commun. 85, 795 (1978).

[4] = Analgesic assay, tail-flick method, intracerebroventricular injection; assay type: in vivo, male ICR mice; conditions: for Relative Potency: analgesic potency, βh-Endorphin = 100 (run in the same group); for AD50: intracerebroventricular injection, mice, tail-flick, 95% confidence limit in parentheses
Procedure: as §1
^a AD50 in nmole (95% confidence limit) by
intracerebroventricular injection.

[5] = cited from earlier work
[6] = βh-EP = 100; cited from earlier work
[7] = test system: guinea pig ileum preparations; conditions: βh-EP = 100; cited from earlier work
[8] = tritiated βh-EP as primary ligand

With `CSCC[C@H](NC(=O)[C@H](Cc1ccccc1)NC(=O)CNC(=O)CNC(=O)[C@@H](N)Cc1ccc(O)cc1)C(=O)O` [methionine-enkephalin, reference compound] the “activity in rat brain binding assay (in words)” value [1] was “low activity” and the “activity in rat brain binding assay, relative to βh-EP” value [1, 8] was 5 % of βh -EP.
For “[CH3 (CH2)4 NH2^31 ]-βh -EP [[CH(CH2)4 NH2^31]-βh -EP]”, the IC50 [1, 8] was 0.33 nM and the “Relative Potency” value [1] was 197.
With “[Gln^8, Gly^31 ]-βh -EP-Gly-Gly-NH2 [[Gln^8,Gly^31]-βh -Gly--Gly--NH2]” the “potency in the binding assay relative to βh-EP (in words)” value [1] was “nine times that of βh -EP”, the IC50 [1, 8] was 0.07 nM and the “Relative Potency” value [1] was 929.
With [Gly^31 ]-βh -EP the IC50 [2] was 0.59 nM, the Relative Potency [2] was 127 and the IC50 [3] was 76 nM. The Relative Potency [3] was 168, the “Relative Potency” value [4] was 83 and the AD50 [4] was 0.077 (0.038-0.17) nmole.
With “[Gly^31 ]-βh -EP-Gly-Gly-NH2 [[Gly^31]-βh -EP--Gly--Gly--NH2]” the “potency in the binding assay relative to βh-EP (in words)” value [1] was “over four times the potency of βh -EP”, the IC50 [1, 8] was 0.15 nM and the “Relative Potency” value [1] was 433.
With “[Gly^31 ]-βh -EP-Gly-NH2 [[Gly^31]-βh -EP--Gly--NH2]” the “activity in rat brain binding assay (in words)” value [1] was “a further increase in activity”, the IC50 [1, 8] was 0.19 nM and the “Relative Potency” value [1] was 342.
For “[Gly^31 ]-βh -endorphinamide [[Gly^31]-βh -EP--NH2]”, the IC50 [2] was 0.3 nM, the “potency in the receptor assay relative to the parent peptide (in words)” value ([2]; Table 4) was “almost three times more potent” and the Relative Potency [2] was 250. The IC50 [3] was 64 nM, the Relative Potency [3] was 200 and the “Relative Potency” value [4] was 225. For the same compound, the AD50 [4] was 0.016 (0.008-0.032) nmole.
Work on “[Gly^31 ]-βh -endorphinylglycine [[Gly^31]-βh -EP--Gly--OH]” yielded an IC50 [2] of 0.49 nM, a Relative Potency [2] of 153 and an IC50 [3] of 97 nM. For the same compound, the Relative Potency [3] was 132, the “Relative Potency” value [4] was 217 and the AD50 [4] was 0.043 (0.031-0.057) nmole.
For [Phe^27, Gly^31 ]-βh -EP, the “analgesic potency relative to the parent” value ([5]; intravenous assay route) is given as “about 1.48 times that of the parent”, the “relative potency previously obtained, in vivo assay” value [6] is given as 119 and the “relative potency previously obtained, guinea pig ileum assay” value [7] is given as 128.
In the case of “β-endorphin: the structure corresponding to positions 61-91 of β-lipotropin, namely β-endorphin (YGGFMTSEKSQTPLVTLFKNAIIKNAYKKGE; Beta-endorphin; UniProt P01189 237-267, looked up)”, the “analgesic activity (in words)” value ([5]; intravenous route) is listed as “potent analgesic activity by the intravenous route”.
With “βh -Endorphin: synthetic βh -EP as standard competing ligand [reference compound]” the IC50 [1, 8] was 0.65 nM, the “Relative Potency” value [1] was 100 and the IC50 [2] was 0.75 nM. It also gave a Relative Potency [2] of 100, an IC50 [3] of 128 nM and a Relative Potency [3] of 100. For the same compound, the “Relative Potency” value [4] was 100.

— patent US4250087A, “Carboxyl terminus analogs of β-endorphin” (Hoffmann-La Roche Inc., priority 1979, dated 1981)
